Experimental data taken from patent US20250108088A1, “REGENERATIVE PEPTIDES AND METHODS FOR USE THEREOF” (priority 2023, published 2025).

System: Normal human dermal fibroblasts (HNDF)
Experiment: Myofibroblast transition assay (MFT), aSMA immunofluorescence
Type: cell-based
Details: N = 3; for Myofibroblast transition (MFT), aSMA/cell, % change relative to control: TGF-Beta induced HNDF, control of no peptide; for MFT, Representative value from experiments (% change relative to control): most effective significant concentration of 10, 100, 1000 ng/ml
Excerpt: The myofibroblast transition (MFT) assay determines the effect of the peptide on inhibiting the transition of fibroblasts to myofibroblasts. The extracellular matrix produced by myofibroblasts may be produced in excess and may not be remodeled during tissue healing, leaving behind the fibrous connective tissue that forms a scar. Thus, the ability to regulate the degree of MFT may enable control of scarring. To determine if the peptides provided herein affect MFT, the following assay was performed.
Normal human dermal fibroblasts (HNDF) were cultured in high glucose Dulbecco's modified eagle medium (DMEM) supplemented with 10% fetal bovine serum (FBS) and 5 ml of 10,000 units of penicillin/streptomycin. Cells were cultured on 10 cm plates with media changes every 2 days. Cells were passaged in 0.25% Trypsin/EDTA after achieving 80% confluency.
To induce myofibroblast transition (MFT), normal human dermal fibroblasts (HNDFs) were split from 1-10 cm plates to 5-96 well plates. Cells were then allowed to grow the next day. The following day, cells were serum starved (1% FBS in DMEM) for 4 hours prior to adding 20 ng/ml of TGF-Beta to all wells of the plate. 1000 μM of Vactosertib (TEW-7197/EW-7197) was added to serve as a positive control and different concentrations of peptides were added to serve as the test articles. The cells were then exposed to the compounds for 5 more days before fixation.
The cells were fixed in paraformaldehyde (PFA) for 10-15 minutes, then washed 2× in PBS. Cells were blocked in 4% BSA for 30 minutes at 23° C. Cells were stained with the primary alpha-smooth muscle actin (aSMA) antibody (1:100) for 1 hour at 23° C. or left out at 4° C. overnight. Cells were rinsed 2× with BSA and then the secondary antibody mix was added: Alexa 488 (1:500) and DAPI (1:1000) for 30 min at 23° C. or 1 hr at 4° C. The plates were covered during staining, then rinsed 2× in BSA and stored in PBS.
Plates were imaged using the Celigo Imaging Cytometer by Nexcelcom. The ratio of fluorescent expression of alpha-smooth muscle actin (aSMA) and DAPI were quantified to determine the amount of aSMA/cell.
The change (normalized to the control) in MFT for each concentration is shown along with the p value for all experiments relative to the control of no peptide.

Row | Substance | Myofibroblast transition (MFT), aSMA/cell, % change relative to control (10 ng/ml peptide) | Myofibroblast transition (MFT), aSMA/cell, % change relative to control (100 ng/ml peptide) | MFT, Representative value from experiments (% change relative to control) | Myofibroblast transition (MFT), aSMA/cell, % change relative to control (1000 ng/ml peptide)
1 | AKEVEKH [MBBey4] | −0.2205% | −0.4435% | −0.4435 p = (0.007) % | 
2 | ASCRC [MBb5] | −0.298% | −0.409% | −0.6162 p = (0.01) % | −0.6162%
3 | ASLHGNGLRKRLRKFRNK [MBb66] |  | −0.3446% | −0.3446 p = (0.024) % | 
4 | AVHELGH [MBb24] |  | −0.1419% | −0.1419 p = (0.003) % | 
5 | CDADKKDYCLFGRCQYIVELETFRCRCQKGYYGERCVYLEL [EA-1] | −0.1401% | −0.2928% | −0.2928 p = (0.016) % | −0.0906%
6 | CGGLPGLRKRLRKFRNK [MBb41] |  | −0.6154% | −0.6154 p = (0.03) % | −0.2177%
7 | DCRICS [MBa1] |  | −0.2174% | −0.2174 p = (0.04) % | 
8 | DPCPLCGLRKRLRKFRNK [MBb12] |  | −0.4465% | −0.4465 p = (0.037) % | 
9 | DVLDKRLFWIQYNREG [MBWhit45] | −0.6471% | −0.6265% | −0.6471 p = (0.018) % | −0.6136%
10 | EEIDA [MBb1.2] |  | −0.3496% | −0.3496 p = (0.006) % | 
11 | EELTRGLRKRLRKFRNK [MBb23] |  | −0.1203% | −0.1203 p = (0.016) % | 
12 | EKKNPGLRKRLRKFRNK [MBb73] |  | −0.07558% | −0.07558 p = (0.04) % | 
13 | ENIKKGLRKRLRKFRNK [MBb37] |  | −0.1426% | −0.1426 p = (0.032) % | 
14 | EYENPGLRKRLRKFRNK [MBb10] |  | −0.2694% | −0.2694 p = (0.023) % | 
15 | FFLRIHPDGRVDGVR [MBWhit1] |  | −0.3667% | −0.3667 p = (0.038) % | 
16 | GDIR VR (GDIRVR) [MBWhit33] |  | −0.3175% | −0.3527 p = (0.032) % | −0.3527%
17 | GESKGLGLRKRLRKFRNK [MBb36] | −0.07698% | −0.1964% | −0.1964 p = (0.002) % | 
18 | HIWA VVPCIR (HIWAVVPCIR) [MBBey3] |  | −0.1442% | −0.1442 p = (0.037) % | 
19 | HNGILID [MBBey24] | −0.05283% | 0.06835% | −0.05283 p = (0.005) % | 0.2745%
20 | IAHELGH [MBb2.2] | −0.1592% | −0.1476% | −0.1928 p = (0.021) % | −0.1928%
